Where a name gives a salt, the structure may show the parent alone.
Test system: rat liver microsome lipid peroxidation
Assay: Antioxidation action test in rat liver microsome (microsome lipid peroxidation measuring system, TBARS generation)
Type: biochemical
Conditions: for antioxidation action: microsome lipid peroxidation measuring system using a rat liver microsome, result in words; for IC50: rat liver microsome, NADPH 500 μM + ferrous sulfate 50 μM, 20 minutes reaction, 37° C., n=2, nonlinear regression, read-out: IC50 (TBARS generation suppressing action)
Description: 1. Antioxidation Action Test in Rat Liver Microsome
Using a microsome lipid peroxidation measuring system, an antioxidation action of a test compound was evaluated. This test quantifies a thiobarbituric acid reaction substance (TBARS) that is generated by a lipid peroxidation reaction caused by adding nicotinamide adenine dinucleotide phosphoric acid and ferrous sulfate to a microsome. To this system, a test compound is added, and a TBARS generation suppressing action by the test compound is evaluated as an antioxidation action. This method is a general method for measuring an antioxidation action of a compound or the like (Reference document: Yakugaku Zasshi 119, 93-99 (1999), Biochimica et Biophysics Acta, 1046, (1990) 207-213, Chemistry & Biology Experiment line 2, lipid peroxidation experimental method (Hirokawa shoten)).
A buffer solution was prepared by mingling to achieve 25 mM tris(hydroxymethyl)aminomethane (Tris) (pH 7.4) and 150 mM potassium chloride (KCl).
Ferrous sulfate (FeSO4.7H2O) was dissolved in distilled water to prepare a 5 mM solution.
Nicotinamide adenine dinucleotide phosphoric acid (NADPH) was dissolved in distilled water to prepare a 50 mM solution.
Ethylenediaminetetraacetic acid (EDTA) was dissolved in distilled water to prepare a 200 mM solution.
Five μL of a commercially available rat liver microsome [XENOTECH, catalog No. R1000 (20 mg protein/mL)] was used.
As a test compound, Compound A which is an inventive compound [1-[6-(4-cyclopropyl-1H-indazol-5-yl)pyridin-3-yl]-1-ethylenepropylamine hydrochloride (Example compound 2)], and Compound B having a similar compound structure [1-[6-(4-cyclopropyl-1H-indazol-5-yl)pyridin-3-yl]-1-methyl ethyl amine hydrochloride (synthesized according to a method described in European Patent Publication No. 1679308)] were used. Ten mM test compound solutions were prepared by dissolving 1.3 mg of Compound A in 0.315 mL of dimethyl sulfoxide (DMSO), and dissolving 2.15 mg of Compound B in 0.554 mL of dimethyl sulfoxide (DMSO).
[drawing 8] (Evaluation Method) 1) A test compound solution (5 μL) was put into a reaction tube. […] 7) A thiobarbituric acid reaction substance (TBARS) generation value in the reaction completed solution was measured using a commercially available TBARS measuring kit [Cayman, Catalog No. 10009055].
As a non-lipid peroxidation reaction group, a test was conducted by adding distilled water in place of nicotinamide adenine dinucleotide phosphoric acid and ferrous sulfate, and a TBARS generation value was measured. The number of examples of each group is n=2, and the TBARS generation suppressing rate (%) was calculated from an average value of n=2 according to the following formula 1, and IC50 of the test compound was measured by nonlinear regression of statistical analysis software (EXSAS). […]

Row | IC50 [µM] | Compound | antioxidation action
1 | > 100 | CC(C)(N)c1ccc(-c2ccc3[nH]ncc3c2C2CC2)nc1 [Compound B, 1-[6-(4-cyclopropyl-1H-indazol-5-yl)pyridin-3-yl]-1-methyl ethyl amine hydrochloride] | did not exhibit a strong antioxidation action
2 | 3.8 | CCC(N)(CC)c1ccc(-c2ccc3[nH]ncc3c2C2CC2)nc1 [Compound A, 1-[6-(4-cyclopropyl-1H-indazol-5-yl)pyridin-3-yl]-1-ethylpropylamine hydrochloride] | exhibited a strong antioxidation action

Source: patent US8816092B2, “Indazole derivative or salt thereof and production intermediate thereof, and antioxidant using same, and use of indazole derivative or salt thereof” (Ube Industries, Ltd., priority 2010, dated 2014)
